Experimental data: US20250352553A1, “TREATMENT OF HOSPITAL-ACQUIRED BACTERIAL PNEUMONIA AND VENTILATOR-ASSOCIATED BACTERIAL PNEUMONIA CAUSED BY SUSCEPTIBLE ISOLATES OF ACINETOBACTER BAUMANNII-CALCOACETICUS COMPLEX” (Entasis Therapeutics, Inc., priority 2024, published 2025)

Columns and labels:
[1] = tested on: Acinetobacter baumannii-calcoaceticus complex; format: in vivo, human; conditions: Part A, CRABC m-MITT Population
Description: The Phase 3 trial employed a non-inferiority design, as discussed and agreed with the FDA DAI. A Test of Cure (TOC) visit was completed 7±2 days after the last dose, and survival was assessed at Day 28.
Patients were treated with either XACDURO® (1 g sulbactam and 1 g durlobactam, or renally adjusted dose) intravenously over 3 hours every 6 hours (n=91) or colistin 2.5 mg/kg (or renally adjusted dose) intravenously over 30 minutes every 12 hours after an initial loading dose of colistin 2.5 to 5 mg/kg (n=86). Both treatment arms also received 1 g imipenem/1 g cilastatin (or renally adjusted dose) intravenously every 6 hours as background therapy for potential HABP/VABP pathogens other than Acinetobacter baumannii-calcoaceticus complex. Patients received up to 14 days of therapy.
Part A was a randomized, assessor-blinded, comparative portion of the Phase 3 trial. Patients were randomized (1:1) to 1.0 g sulbactam/1.0 g durlobactam or 2.5 mg/kg colistin. All patients in both treatment groups received 1.0 g imipenem/1.0 g cilastatin as background therapy to treat non-ABC co-infecting pathogens.
Randomization was stratified by infection type (HABP/VABP/ventilated pneumonia [VP] vs bacteremia), severity of illness, and geography.
Eligible patients were ≥18 years of age with a diagnosis of a serious infection caused by ABC as either a single pathogen or member of a polymicrobial infection confirmed by culture.
Non-inferiority was concluded if the upper limit of the 2-sided 95% CI was <20%.
Secondary efficacy endpoints for Parts A and B included: 28-day all-cause mortality in the m-MITT and ITT Populations, 14-day all-cause mortality in the CRABC m-MITT and m-MITT Populations, Clinical cure at TOC, End of Treatment (EOT), and Late Follow-Up (LFU) in the CRABC m-MITT Population, and Microbiological favorable assessment at TOC, EOT, and LFU in the CRABC m-MITT Population.

[2] = in vivo
Description: The modified RIFLE criteria includes: Risk (R): increased creatinine level 1.5× or glomerular filtration rate (GFR) decreased >25%, • Injury (I): increased creatinine level 2× or GFR decreased >50%, Failure (F): increased creatinine level 3×, GFR decreased >75%, or creatinine level ≥4 mg/dL, Loss (L): persistent acute renal failure or complete loss of function for >4 weeks, and End-Stage Kidney Disease (ESKD; E): ESKD for >3 months.

[3] = tested on: Acinetobacter baumannii-calcoaceticus complex; conditions: colistin-based therapy, cited from earlier work

Substance: colistin
- 28-day all-cause mortality [1]: 32.3%
- clinical cure rate at TOC ([1]; Test of Cure visit): 40.3%
- microbiological favorable assessment at TOC ([1]; eradication and presumed eradication): 41.9%
- incidence of nephrotoxicity (modified RIFLE criteria) [2]: 37.6%
- mortality rate, random effects analysis ([3]; literature review, DerSimonian and Laird, 95% CI 32%, 47%): 40%
- mortality rate, fixed effects analysis ([3]; literature review, 95% CI 35%, 45%): 40%
- mortality rate, random effects meta-analysis updated with 4 additional studies ([3]; 95% CI 36%, 47%): 41%
